Laboratory results reported in ChEMBL document CHEMBL5365543, “Benzamidine Conjugation Converts Expelled Potential Active Agents into Antifungals against Drug-Resistant Fungi” (J Med Chem, 2023).
Values after ≈ are worked out from the molar mass of the structure shown. Active and inactive are the calls of the source. The calls are words filed in the database; no cut-off is given here.

What was measured:
Candida albicans [1] = assay: microbe, parasite or virus in culture; assay type: functional; conditions: DSY654, time 24 hrs
[2] = Drug accumulation in wild-type Candida albicans SC5314 at 50 microg/ml incubated for 3 hrs by HPLC analysis; assay type: ADME; conditions: dose 50 µg/ml
Candida albicans [3] = assay: Antifungal activity against wild-type Candida albicans SC5314 assessed as inhibition of fungal growth measured after 24 hrs by CLSI based microtiter plate analysis; assay type: functional
Candida albicans [4] = assay: Antifungal activity against clinical isolate Candida albicans YEM13 overexpressing efflux pump MdrL assessed as inhibition of fungal growth measured after 24 hrs by CLSI based microtiter plate analysis; assay type: functional
Candida albicans [5] = assay: Antifungal activity against clinical isolate Candida albicans YEM15 overexpressing efflux pump CdrL and Cdr2 assessed as inhibition of fungal growth measured after 24 hrs by CLSI based microtiter plate analysis; assay type: functional
Candida albicans [6] = assay: Antifungal activity against clinical isolate Candida albicans SCUPC2R14MPG2A harbouring UPC2 mutation overexpressing […] Erg11 assessed as inhibition of fungal growth measured after 24 hrs by CLSI based microtiter plate analysis; assay type: functional
Candida albicans [7] = assay: Antifungal activity against clinical isolate Candida albicans SCMRRIR34MPG2A harbouring MRR1 mutation overexpressing efflux pump MdrL assessed as inhibition of fungal growth measured after 24 hrs by CLSI based microtiter plate analysis; assay type: functional
Candida albicans [8] = assay: Antifungal activity against clinical isolate fluconazole-resistant Candida albicans DSY296 harbouring TAC1 mutation overexpressing efflux pump CdrL and Cdr2 assessed as inhibition of fungal growth measured after 24 hrs by CLSI based microtiter plate analysis; assay type: functional
Candida albicans [9] = assay: Antifungal activity against clinical isolate fluconazole-resistant Candida albicans G5 harbouring MRR1 mutation overexpressing MdrL assessed as inhibition of fungal growth measured after 24 hrs by CLSI based microtiter plate analysis; assay type: functional
Candida albicans [10] = assay: Antifungal activity against clinical isolate fluconazole-resistant Candida albicans Gu5 harbouring TAC1 mutation overexpressing efflux pump CdrL and Cdr2 assessed as inhibition of fungal growth measured after 24 hrs by CLSI based microtiter plate analysis; assay type: functional
Candida albicans [11] = assay: Antifungal activity against clinical isolate fluconazole-resistant Candida albicans CA632 assessed as inhibition of fungal growth measured after 24 hrs by CLSI based microtiter plate analysis; assay type: functional
[Candida] auris [12] = Antifungal activity against clinical isolate fluconazole-resistant Candida auris CBS12774 assessed as inhibition of fungal growth measured after 24 hrs by CLSI based microtiter plate analysis; assay type: functional; conditions: Candidozyma auris
[Candida] auris [13] = Antifungal activity against clinical isolate fluconazole-resistant Candida auris CBS12776 assessed as inhibition of fungal growth measured after 24 hrs by CLSI based microtiter plate analysis; assay type: functional; conditions: Candidozyma auris
Nakaseomyces glabratus = assay: Antifungal activity against clinical isolate fluconazole-resistant Candida glabrata CG2 assessed as inhibition of fungal growth measured after 24 hrs by CLSI based microtiter plate analysis; assay type: functional
Cryptococcus neoformans = assay: Antifungal activity against clinical isolate fluconazole-resistant Cryptococcus neoformans H99 assessed as inhibition of fungal growth measured after 24 hrs by CLSI based microtiter plate analysis; assay type: functional
Candida tropicalis = assay: Antifungal activity against clinical isolate fluconazole-resistant Candida tropicalis CT10 assessed as inhibition of fungal growth measured after 24 hrs by CLSI based microtiter plate analysis; assay type: functional
[14] = Candida albicans, SC5314, read-out: MIC80
[15] = Candida albicans, SC5314, 24 h, read-out: MIC80

For `CCOC(=O)C1=C(COCCN)NC(C)=C(C(=O)OC)C1c1ccccc1Cl` (stereo not drawn) [AMLODIPINE], the MIC (Candida albicans [1]) was 32 µg/mL (≈ 78.3 µM) and the Drug uptake ([2]; BLD = below limit of detection) was “Bld”.
For `C[C@@H]1CC[C@@]2(OC1)O[C@H]1C[C@H]3[C@@H]4CC=C5C[C@@H](OC(=O)CCCOc6ccc(C(=N)N)cc6)CC[C@]5(C)[C@H]4CC[C@]3(C)[C@H]1[C@@H]2C`, the MIC80 (Candida albicans [3]; [14]) was 64 µg/mL (≈ 103 µM) and the Drug uptake [2] was “Active”.
For `C[C@@H]1CC[C@@]2(OC1)O[C@H]1C[C@H]3[C@@H]4CC=C5C[C@@H](O)CC[C@]5(C)[C@H]4CC[C@]3(C)[C@H]1[C@@H]2C` [DISOGENIN], the MIC (Candida albicans [3]; Candida albicans, SC5314) was greater than 256 µg/mL and the Drug uptake ([2]; BLD = below limit of detection) was “Bld”.
With `COc1ccc2c(CCCI)c3[n+](cc2c1OC)CCc1cc2c(cc1-3)OCO2.[I-]` the MIC80 (Candida albicans [1]) was 16 µg/mL and the MIC80 (Candida albicans [3]; [14]) was 64 µg/mL.
For `CCOC(=O)C1=C(COCCNCCCOc2ccc(C(=N)N)cc2)NC(C)=C(C(=O)OC)C1c1ccccc1Cl` (stereo not drawn), the MIC (Candida albicans [3]) was “inactive”, the MIC80 (Candida albicans [3]; [15]) was 4 µg/mL (≈ 6.84 µM) and the MIC80 (Candida albicans [4]) was 4 µg/mL (≈ 6.84 µM). The MIC80 (Candida albicans [5]) was 4 µg/mL (≈ 6.84 µM), the MIC80 (Candida albicans [6]) was 4 µg/mL (≈ 6.84 µM) and the MIC80 (Candida albicans [7]) was 8 µg/mL (≈ 13.7 µM). It also gave an MIC80 (Candida albicans [8]) of 8 µg/mL (≈ 13.7 µM), an MIC80 (Candida albicans [9]) of 4 µg/mL (≈ 6.84 µM) and an MIC80 (Candida albicans [10]) of 4 µg/mL (≈ 6.84 µM). It also gave an MIC80 (Candida albicans [11]) of 4 µg/mL (≈ 6.84 µM), an MIC80 ([Candida] auris [12]) of 8 µg/mL (≈ 13.7 µM) and an MIC80 ([Candida] auris [13]) of 8 µg/mL (≈ 13.7 µM). The MIC80 (Nakaseomyces glabratus) was 8 µg/mL (≈ 13.7 µM), the MIC80 (Cryptococcus neoformans) was 8 µg/mL (≈ 13.7 µM) and the MIC80 (Candida tropicalis) was 4 µg/mL (≈ 6.84 µM). The Drug uptake [2] was “Active”.
With `C[C@H]1[C@H](C)CC[C@]2(C(=O)O)CC[C@]3(C)C(=CC[C@@H]4[C@@]5(C)CC[C@H](O)C(C)(C)[C@@H]5CC[C@]43C)[C@H]12` [URSOLIC ACID] the Drug uptake ([2]; BLD = below limit of detection) was “Bld”.
In the case of `CC(=O)O[C@H]1C[C@@]2(C)[C@@H](C[C@@H](O)[C@H]3[C@@]4(C)CC[C@@H](O)[C@@H](C)[C@@H]4CC[C@@]32C)/C1=C(\CCC=C(C)C)C(=O)OCCCOc1ccc(C(=N)N)cc1`, the MIC80 (Candida albicans [3]; [14]) is reported as 16 µg/mL (≈ 23.1 µM) and the Drug uptake [2] is reported as “Active”.
In the case of `O=C(O)c1ccccc1Nc1cccc(C(F)(F)F)c1` [FLUFENAMIC ACID], the MIC (Candida albicans [3]; Candida albicans, SC5314) is reported as greater than 256 µg/mL and the Drug uptake ([2]; BLD = below limit of detection) is reported as “Bld”.
In the case of `C=C1C(=O)O[C@@]23CC[C@H]4[C@@](C)(CCC[C@@]4(C)C(=O)OCCCOc4ccc(C(=N)N)cc4)[C@@H]2CC[C@]1(O)C3`, the MIC80 (Candida albicans [3]; [14]) is reported as 32 µg/mL (≈ 61 µM) and the Drug uptake [2] is reported as “Active”.
With `CCc1n(CCCI)c2ccccc2[n+]1C.[I-]` the MIC80 (Candida albicans [1]) was greater than 256 µg/mL and the MIC80 (Candida albicans [3]; [14]) was greater than 256 µg/mL.
For `CC/C(=C(/CC)c1ccc(O)cc1)c1ccc(O)cc1` [DIETHYLSTILBESTROL], the MIC (Candida albicans [1]) was 4 µg/mL (≈ 14.9 µM).
With `C=C1[C@H](O)[C@@]23CC[C@H]4[C@@](C)(CCC[C@@]4(C)C(=O)O)[C@@H]2CC[C@]1(O)C3` the MIC (Candida albicans [3]; Candida albicans, SC5314) was greater than 256 µg/mL and the Drug uptake ([2]; BLD = below limit of detection) was “Bld”.
With `C=CCc1ccc(OCCCOc2ccc(C(=N)N)cc2)c(-c2ccc(O)c(CC=C)c2)c1` the MIC (Candida albicans [3]) was “inactive”, the MIC80 (Candida albicans [3]; [15]) was 8 µg/mL (≈ 18.1 µM) and the MIC80 (Candida albicans [4]) was 8 µg/mL (≈ 18.1 µM). It also gave an MIC80 (Candida albicans [5]) of 8 µg/mL (≈ 18.1 µM), an MIC80 (Candida albicans [6]) of 8 µg/mL (≈ 18.1 µM) and an MIC80 (Candida albicans [7]) of 8 µg/mL (≈ 18.1 µM). For the same compound, the MIC80 (Candida albicans [8]) was 8 µg/mL (≈ 18.1 µM), the MIC80 (Candida albicans [9]) was 8 µg/mL (≈ 18.1 µM) and the MIC80 (Candida albicans [10]) was 8 µg/mL (≈ 18.1 µM). It also gave an MIC80 (Candida albicans [11]) of 8 µg/mL (≈ 18.1 µM), an MIC80 ([Candida] auris [12]) of 8 µg/mL (≈ 18.1 µM) and an MIC80 ([Candida] auris [13]) of 16 µg/mL (≈ 36.2 µM). The MIC80 (Nakaseomyces glabratus) was 16 µg/mL (≈ 36.2 µM), the MIC80 (Cryptococcus neoformans) was 8 µg/mL (≈ 18.1 µM) and the MIC80 (Candida tropicalis) was 16 µg/mL (≈ 36.2 µM). For the same compound, the Drug uptake [2] was “Active”.
For `Fc1ccc(C(c2ccc(F)cc2)N2CCN(C/C=C/c3ccccc3)CC2)cc1` [FLUNARIZINE], the MIC (Candida albicans [1]) was 8 µg/mL (≈ 19.8 µM) and the MIC (Candida albicans [3]) was “inactive”.
For `CC1(C)CC[C@]2(C(=O)OCCCOc3ccc(C(=N)N)cc3)CC[C@]3(C)C(=CC[C@@H]4[C@@]5(C)CC[C@H](O)C(C)(C)[C@@H]5CC[C@]43C)[C@@H]2C1`, the MIC80 (Candida albicans [3]; [14]) was 4 µg/mL (≈ 6.32 µM) and the Drug uptake [2] was “Active”.
For `N=C(N)c1ccc(OCCCBr)cc1`, the MIC80 (Candida albicans [1]) was greater than 256 µg/mL and the MIC80 (Candida albicans [3]; [14]) was greater than 256 µg/mL.
In the case of `CC1(C)CC[C@]2(C(=O)O)CC[C@]3(C)C(=CC[C@@H]4[C@@]5(C)CC[C@H](O)C(C)(C)[C@@H]5CC[C@]43C)[C@@H]2C1` [OLEANOLIC_ACID], the MIC (Candida albicans [3]; Candida albicans, SC5314) is reported as greater than 256 µg/mL and the Drug uptake ([2]; BLD = below limit of detection) is reported as “Bld”.
For `C=C1C[C@@]2(CC)[C@@H](CC[C@@]2(O)c2cn(CCCOc3ccc(C(=N)N)cc3)nn2)[C@@H]2CCC3=CCCC[C@@H]3[C@@H]12`, the MIC (Candida albicans [3]) was “inactive”, the MIC80 (Candida albicans [3]; [15]) was 32 µg/mL (≈ 60.4 µM) and the MIC80 (Candida albicans [4]) was 32 µg/mL (≈ 60.4 µM). It also gave an MIC80 (Candida albicans [5]) of 64 µg/mL (≈ 121 µM), an MIC80 (Candida albicans [6]) of 64 µg/mL (≈ 121 µM) and an MIC80 (Candida albicans [7]) of 64 µg/mL (≈ 121 µM). It also gave an MIC80 (Candida albicans [8]) of 64 µg/mL (≈ 121 µM), an MIC80 (Candida albicans [9]) of 64 µg/mL (≈ 121 µM) and an MIC80 (Candida albicans [10]) of 64 µg/mL (≈ 121 µM). It also gave an MIC80 (Candida albicans [11]) of 32 µg/mL (≈ 60.4 µM), an MIC80 ([Candida] auris [12]) of 64 µg/mL (≈ 121 µM) and an MIC80 ([Candida] auris [13]) of 64 µg/mL (≈ 121 µM). For the same compound, the MIC80 (Nakaseomyces glabratus) was 64 µg/mL (≈ 121 µM), the MIC80 (Cryptococcus neoformans) was 64 µg/mL (≈ 121 µM) and the MIC80 (Candida tropicalis) was 64 µg/mL (≈ 121 µM). The Drug uptake [2] was “Active”.
With `C=C1C(=O)[C@@]2(C)CC[C@@H]3[C@@]1(CC[C@H]1[C@@]3(C)CCC[C@@]1(C)C(=O)OCCCCCCCCCOc1ccc(C(=N)N)cc1)C2` the MIC (Candida albicans [3]; Candida albicans, SC5314) was 32 µg/mL (≈ 54.2 µM) and the Drug uptake ([2]; BLD = below limit of detection) was “Bld”.
